# Results published in paper PMC4948680 (European journal of pharmaceutical sciences : official …, 2016).
# Legend:
# [1] = system: Crl:NMRI (SPF) female mice; assay: Acute intravenous toxicity of CP04 in mice; assay type: in vivo; conditions: 178.5 μg/kg body weight iv
# Excerpt: For acute intravenous toxicity studies Crl:NMRI (SPF) female mice provided by Charles River Laboratories (Germany) of 7–9 weeks of age and a body weight of 26–33 g were used. For extended acute single dose toxicity study in rats, 45 female and 45 male Wistar Hannover RccHan™ rats were used purchased from Harlan Laboratories, B.V. (The Netherlands). Animals were […] of age and the body weights were 195–235 g for males and 164–199 g for females. For in vivo stability tests and biodistribution/dosimetry studies healthy male Swiss albino mice from NCSR “Demokritos” Animal House were used, of 8–10 weeks of age and a body weight of 20–25 g. […]
# The CP04 precursor was dissolved in phosphate buffered saline (PBS pH 7.4) and was administered at a dose of 178.5 μg/kg body weight and a dose volume of 5 mL/kg body weight into the caudal vein of two groups of three mice (Acute Intravenous Toxicity Study in Mice, Harlan Laboratories Study #D04314). […] Mortality, viability and clinical signs were recorded. […] Mortality/viability was recorded within the first 30 min and approximately 1, 2, 3 and 5 h after administration on test day 1 (with the clinical signs) and twice daily during days 2–15. Body weights were recorded on test day 1 (prior to administration) and on test days 8 and 15. […]
# [2] = system: Wistar Hannover RccHan rats; assay: Extended acute single dose intravenous (bolus) toxicity study in rats; assay type: in vivo
# Excerpt: For acute intravenous toxicity studies Crl:NMRI (SPF) female mice provided by Charles River Laboratories (Germany) of 7–9 weeks of age and a body weight of 26–33 g were used. For extended acute single dose toxicity study in rats, 45 female and 45 male Wistar Hannover RccHan™ rats were used purchased from Harlan Laboratories, B.V. (The Netherlands). Animals were […] of age and the body weights were 195–235 g for males and 164–199 g for females. For in vivo stability tests and biodistribution/dosimetry studies healthy male Swiss albino mice from NCSR “Demokritos” Animal House were used, of 8–10 weeks of age and a body weight of 20–25 g. For the CCK2R-expressing tumour model, male SCID mice from NCSR “Demokritos” Animal House were used, of 6 weeks of age on arrival day and a body weight of 20 ± 2 g.
# The study was designed according to the microdosing concept as described in ICH guideline M3 (R2) (“Note for guidance on non-clinical safety studies for the conduct of human clinical trials and marketing authorization for pharmaceuticals” (CPMP/ICH/286/95)). In brief, 90 rats were distributed into three dose groups, each containing fifteen animals per sex (Table 1). The animals from Group 1 received only PBS, serving as controls, while groups II and III received the CP04 solution by single intravenous (bolus) injection at a low (89 μg/kg body weight: Group 2) and a high dose (890 μg/kg body weight: Group 3). A 24-h observation period followed (Allocation A), except for five animals per sex from each group for which treatment was followed by an additional 14-day treatment-free recovery period (Allocation B).
# At day 2 blood samples were withdrawn from Allocation-A animals for haematology, clinical biochemistry and samples for urinary analyses were collected. These animals were necropsied on the same day and histological examinations were performed on an extended set of organs (adrenal glands, kidneys, liver, pancreas, sternum (including bone marrow), small intestine, stomach, thyroid/parathyroid glands and gross lesions). The animals from Allocation-B remained untreated for the following 14 days, but on day 15 underwent the same procedure described above (Extended Acute Intravenous (Bolus) Toxicity Study in Rats, Harlan Study #S47364).
# CCK2R = system: CCK2R; set-up: method as in Aloj et al., 2011; Kolenc Peitl et al., 2015; conditions: ref Aloj et al., 2011; Kolenc Peitl et al., 2015; cited from earlier work
# [3] = set-up: species or system mice
# Experimental: Clearance kinetics in each organ was determined by exponential curve fitting. The time-integrated activity concentration (TIAC) was obtained by integration of this exponential curve folded with the decay curve of ^111In and ^177Lu.Mouse dosimetry was calculated for both ^177Lu and ^111In using the TIAC and the 25 g RADAR mouse absorbed dose rates per unit activity S for each source and target organ combination ([Keenan et al., 2010]; [Konijnenberg et al., 2014]).
SMILES,macroscopic findings at necropsy ([1]; female mice),"survival and systemic signs of toxicity ([1]; two groups of three female mice, 14 days observation)",maximum recommended starting dose (MRSD) for a first-in-human clinical trial ([2]; HED with safety factor of 10) [µg/kg],human equivalent dose (HED) ([2]; NOAEL × rat km/human km = 89 μg/kg × 6/37) [µg/kg],"reticulocyte count ([2]; male rats, 14 days after single bolus 890 μg/kg body weight)","mean food consumption and body weight gain ([2]; rats, single bolus 890 μg/kg body weight)","NOAEL initially established, based on pathological examination ([2]; rats, single intravenous bolus) [μg/kg body weight]","no-observed-adverse-effect-level (NOAEL) ([2]; rats, single intravenous bolus, eventually set value) [μg/kg body weight]","survival and clinical signs ([2]; rats, single iv bolus 89 or 890 μg/kg, 24-h study period)","CCK2R-affinity, IC50 (CCK2R)","Absorbed dose per injected activity, Bone [3] [mGy/MBq]","Absorbed dose per injected activity, Kidneys [3] [mGy/MBq]","Absorbed dose per injected activity, Large intestine [3] [mGy/MBq]","Absorbed dose per injected activity, Liver [3] [mGy/MBq]","Absorbed dose per injected activity, Lungs [3] [mGy/MBq]","Absorbed dose per injected activity, Pancreas [3] [mGy/MBq]","Absorbed dose per injected activity, Small intestine [3] [mGy/MBq]","Absorbed dose per injected activity, Spleen [3] [mGy/MBq]","Absorbed dose per injected activity, Stomach wall [3] [mGy/MBq]","Absorbed dose per injected activity, Total body [3] [mGy/MBq]"
"CSCC[C@H](NC(=O)[C@H](Cc1c[nH]c2ccccc12)NC(=O)CNC(=O)[C@H](Cc1ccc(O)cc1)NC(=O)[C@H](C)NC(=O)[C@@H](CCC(=O)O)NC(=O)[C@@H](CCC(=O)O)NC(=O)[C@@H](CCC(=O)O)NC(=O)[C@@H](CCC(=O)O)NC(=O)[C@@H](CCC(=O)O)NC(=O)[C@@H](CCC(=O)O)NC(=O)CN1CCN(CC(=O)O)CCN(CC(=O)O)CCN(CC(=O)O)CC1)C(=O)N[C@@H](CC(=O)O)C(=O)N[C@@H](Cc1ccccc1)C(N)=O [CP04, DOTA-(DGlu)6-Ala-Tyr-Gly-Trp-Met-Asp-Phe-NH2]",No macroscopic findings,All animals survived until the end of the study with no systemic signs of toxicity evident,1.4,14.4,marked decrease,moderate decrease,890,89,All animals survived the 24-h study period with no clinical signs being recorded,lower nM range,,,,,,,,,,
"CSCC[C@H](NC(=O)[C@H](Cc1c[nH]c2ccccc12)NC(=O)CNC(=O)[C@H](Cc1ccc(O)cc1)NC(=O)[C@H](C)NC(=O)[C@@H](CCC(=O)O)NC(=O)[C@@H](CCC(=O)O)NC(=O)[C@@H](CCC(=O)O)NC(=O)[C@@H](CCC(=O)O)NC(=O)[C@@H](CCC(=O)O)NC(=O)[C@@H](CCC(=O)O)NC(=O)CN1CCN(CC(=O)O)CCN(CC(=O)O)CCN(CC(=O)O)CC1)C(=O)N[C@@H](CC(=O)O)C(=O)N[C@@H](Cc1ccccc1)C(N)=O [^177Lu-CP04, metal not drawn]",,,,,,,,,,,51,400,36,7,12,16,36,9,86,19
